In PMC12344774, “Ferrocenyl Quinoline-Benzimidazole Hybrids: A Multistage Strategy to Combat Drug-Resistant Malaria” (Inorganic Chemistry, 2025):
Several values for one entry are separate records, joined by “and”; a condition that tells them apart may be missing. Identical values can stand only once. Like-named read-outs stand apart in the source and are kept apart here.

Key:
PfNF54 = assay: In vitro ABS antiplasmodial activity, pLDH assay, drug-sensitive NF54; assay type: cell-based, Plasmodium falciparum; conditions: drug-sensitive NF54, ABS, pLDH, 48 h incubation; read-out: PfNF54 IC50 ± SEM
Source text: (§1) This side chain is also present in the well-known antiplasmodial agent, FQ.
(§2) Test samples were screened in technical duplicate or triplicate, for three or four biological replicates, for their in vitro blood stage antiplasmodial activity against both the drug-sensitive (NF54) and multidrug-resistant (K1) strains of . Continuous in vitro cultures of asexual erythrocyte stages of were maintained using a modified method of Trager and Jensen. A quantitative assessment of the in vitro antiplasmodial activity was determined via the parasite lactate dehydrogenase (pLDH) assay, using a modified method described by Makler and Hinrichs.
(§3) The test samples were prepared to a 20 mg/mL stock solution in 100% DMSO. Stock solutions were stored at −20 °C. Further dilutions were prepared in complete medium on the day of the experiment. […] Chloroquine diphosphate (CQDP) was used as the reference drug in all experiments. Test samples were tested at a starting concentration of either 100 μg/mL, 50 μg/mL, 10 μg/mL, or 1 μg/mL, which was then serially diluted 2-fold, in complete medium, to give 10 concentrations. The same dilution technique was used for all samples. […] The IC50 values were obtained from full dose–response curves, using a nonlinear dose–response curve fitting analysis, via GraphPad Prism v.5 software.

PfK1 = assay: microbe, parasite or virus in culture; assay type: cell-based, Plasmodium falciparum; conditions: MDR K1, ABS, pLDH, 48 h incubation; read-out: PfK1 IC50 ± SEM
Source text: as §1, §2, §3

CHO cell line [1] = tested on: CHO cell line
Method: (§4) The samples were tested over 48 h against the Chinese hamster ovarian (CHO) cell line to determine general cytotoxicity. […] Quantitative assessment of toxic activity in vitro was determined via the MTT assay using the method described. Cell viability was determined colorimetrically using the breakdown of a dye by enzymes of the electron transport chain, taking place in the mitochondria of metabolically active living cells, as a marker for survival.
(§5) Compounds were tested in triplicate on a single occasion against these cells using the MTT assay. The test samples were prepared to a 10 mM stock solution, in 100% DMSO, and stored at −20 °C until use. Samples were tested as a suspension if not completely dissolved. Further dilutions to the desired starting concentration were freshly prepared in growth media at the start of the experiment.
(§6) Cells were plated to a density of 10^5 cells/well in 96-well plates and allowed to attach for 24 h. […] After 44 h MTT was added, and the plates were read 4 h later at 540 nm on a spectrophotometer following the addition of 100 μL of DMSO and gentle plate-shaking to solubilize and visualize the dye. Survival was plotted against concentration, and the IC50 values were obtained using a nonlinear dose–response curve fitting analysis via the Dotmatics software platform.

K1 = conditions: previous study; ref Baartzes et al.; read-out: PfIC50 (K1); cited from earlier work
rodent mouse model = tested on: rodent mouse model; set-up: method as in Baartzes et al.; conditions: in vivo, no mice were cured; ref Baartzes et al.; cited from earlier work
[2] = tested on: whole-cell NF54 parasites
Method: However, unlike the cell-free assay, the heme fractionation assay isolates both the heme and Hz components via a series of solubilization and separation steps. Furthermore, the absolute amount of each heme species per cell is calculated using the UV–vis data normalized to the flow cytometry parasite cell count.
The IC50 was previously determined using the pLDH assay. Following incubation for 28–32 h, to ensure progression to the trophozoite stage, parasitized red blood cells were saponin lysed to obtain isolated trophozoites. To determine the amount of heme and hemozoin, the trophozoites were then exposed to a series of cellular fractionation steps to successively liberate each heme species. The UV–visible spectra of these fractions were recorded between 400 and 415 nm on a multiwell plate reader. The percentage of each heme species was determined from the absorbance value of the Soret band of the pyridyl heme complex. To determine the absolute levels of each species, an aliquot of the isolated trophozoites was spiked with Trucount beads and stained with SYBR Green. These were run on a flow cytometer to determine absolute counts, which could in turn be used to calculate the absolute levels of each species per cell. The total heme in each of these samples was quantified using a standard curve. GraphPad Prism (v5) was used to analyze the final data set and perform the significance tests.

CHO cell line [3] = assay: Cytotoxicity, MTT assay
Method: as §4, §5, §6

SMILES | IC50 (PfNF54) | IC50 (PfK1) | CC50 (CHO cell line [1]) | IC50 (K1) | Reduction in parasitemia (rodent mouse model) | Hemozoin (Hz) Fe level per cell versus untreated control ([2]; NF54 parasites at 3× IC50) | Free heme level per cell ([2]; NF54 parasites, 0.5–1.5× the IC50 value) | CC50 (CHO cell line [3]; read-out: CC50 (CHO) ± SEM, MTT, 48 h, technical triplicate on a single occasion) | SI (CC50 CHO/IC50 NF54) (CHO cell line [3]; selectivity index)
Cc1ccc2c(c1)nc(-[c-]1cccc1)n2CCCNc1ccnc2cc(Cl)ccc12.[Fe+2].c1cc[cH-]c1 [Complex C1, 7-chloro-N-(3-(5-(methyl)-2-ferrocenyl-1H-benzo[d]imidazole-1-yl)propyl)quinolin-4-amine] | 9.91 ± 0.71 µM | 6290 ± 510 nM | 43.7 ± 2.5 µM | 283 nM | 92% | – | – | – | –
Cc1ccc2c(c1)nc(-[c-]1cccc1CN(C)C)n2CCCNc1ccnc2cc(Cl)ccc12.[Fe+2].c1cc[cH-]c1 (centres unmarked) [Complex C3, 7-Chloro-N-(3-(5-methyl-2-(2-N,N-dimethylaminomethyl)ferrocenyl-1H-benzo[d]-imidazole-1-yl)propyl) Quinoline-4-amine] | 0.025 ± 0.001 µM | 110 nM and 113 nM | – | – | – | more than five times lower | steadily increased | 6.1 ± 1.2 µM | 244.4
